The nature of data set [1]: Clearance in C57BL/6 mouse at 0.5 mg/kg, iv administered as cassette dose. The data set is classed as ADME, organism-based. To be noted: in vivo.
The nature of data set [2]: Ratio of unbound brain to plasma concentration in C57BL/6 mouse at 3 mg/kg, po or 0.5 mg/kg, iv administered as cassette dose. The data set is classed as ADME, organism-based. The note with it: brain and plasma, read-out: K(p,uu,brain).
A short description of data set [3]: AUC (0 to t) in C57BL/6 mouse at 3 mg/kg, po administered as cassette dose. The data set is classed as ADME, organism-based. To be noted: in vivo.
The nature of data set [4]: Ratio of drug level in C57BL/6 mouse brain to plasma at 3 mg/kg, po or 0.5 mg/kg, iv administered as cassette dose. The data set is classed as ADME, organism-based. To be noted: brain and plasma, read-out: BPR.
A short description of data set [5]: Protein binding in mouse plasma. The data set is classed as ADME, cell-free. The note with it: read-out: PPB (converted).
The nature of data set [6]: Oral bioavailability in C57BL/6 mouse at 3 mg/kg administered as cassette dose. The data set is classed as ADME, organism-based. The note with it: in vivo.
Data set [7] in a line: Cmax in C57BL/6 mouse at 3 mg/kg, po administered as cassette dose. Also on record: dose 3 mg/kg, route oral. The data set is classed as ADME, organism-based. The note with it: in vivo.
Data set [8] in a line: Kinetic solubility of the compound by LC-UV/MS analysis. The data set is classed as physicochemical. The note with it: read-out: Kinetic_solubility.
The nature of data set [9]: Permeability of the compound after 5 hrs by PAMPA. The data set is classed as physicochemical. To be noted: read-out: permeability.

≈ marks a conversion by molar mass, not a printed value.

Turning to `Cc1cc(C#N)ccc1-c1cc(N)cc2ncnn12`, in [1], the clearance was 0.48 mL/min/kg. The Kp uu in data set [2] is 0.39. Besides, the AUC(0-t) in [3] turned out to be 40000 ng·h/mL. For the same molecule, the Kp in data set [4] is 0.21. Further, the fraction unbound in data set [5] was 0.302. The same molecule had a bioavailability in [6] of 39%. For the same molecule, in [7], the Cmax stood at 14.8 µM. In data set [8], the solubility kinetic was found to be 151 µM (≈ 37.6 µg/mL). Moreover, the Papp at 5 h in [9] is 5.9 ×10⁻⁶ cm/s.
For `Cc1cc(C#N)ccc1-c1cccc2ncnn12`, the clearance in data set [1] worked out at 31.6 mL/min/kg. In addition, in [2], the Kp uu amounted to 1.59. The molecule also registered an AUC(0-t) in [3] of 1870 ng·h/mL. For the same molecule, the Kp in data set [4] came to 0.88. Moreover, the fraction unbound in [5] was 0.21. Moreover, the bioavailability in data set [6] stood at 100%. This molecule yielded a Cmax in data set [7] of 5.58 µM. Also, in [8], the solubility kinetic was determined as 189 µM (≈ 44.3 µg/mL). Also, the Papp at 5 h in data set [9] was 40.9 ×10⁻⁶ cm/s.
`CC(=O)Nc1cc(-c2ccc(C#N)cc2C)n2ncnc2c1`: the clearance in data set [1] was 17.5 mL/min/kg. The Kp uu in data set [2] was 0.02. This molecule returned an AUC(0-t) in data set [3] of 3660 ng·h/mL. In addition, the Kp in data set [4] turned out to be 0.03. For the same molecule, the fraction unbound in data set [5] is 0.486. This molecule also returned a bioavailability in [6] of 100%. The Cmax in [7] was determined as 5 µM. For the same molecule, the solubility kinetic in data set [8] was determined as 99 µM (≈ 28.8 µg/mL). In data set [9], the Papp at 5 h came to 2.9 ×10⁻⁶ cm/s.
As for `N#Cc1ccc(-c2cccc3ncnn23)cc1`, the clearance in [1] was 108 mL/min/kg. Besides, the Kp uu in data set [2] was determined as 1.11. Further, the AUC(0-t) in data set [3] was 176 ng·h/mL. In addition, in data set [4], the Kp amounted to 0.95. The fraction unbound in [5] is 0.287. Further, in [6], the bioavailability was determined as 40%. The same molecule displayed a peak concentration (Cmax) in [7] of 0.8 µM. Further, the solubility kinetic in [8] came to 44 µM (≈ 9.69 µg/mL). The Papp at 5 h in data set [9] came out at 24.6 ×10⁻⁶ cm/s.

By clearance is commonly meant a measure of how efficiently the substance is removed, as volume per time. Read a low clearance as a low capacity for elimination. In general, AUC(0-t) refers to exposure summed from dosing to a finite time, without extrapolation to infinity. Low readings indicate low exposure, high ones high exposure. Broadly, the bioavailability is dose-corrected exposure relative to a reference, in per cent. Lower therefore signals little systemic uptake. What is called Cmax is the maximum level reached in the sampled fluid or tissue.

The values above are taken from ChEMBL document CHEMBL4014353, “1,2,4-Triazolo-[1,5-a]pyridine HIF Prolylhydroxylase Domain-1 (PHD-1) Inhibitors With a Novel Monodentate Binding Interaction” (J Med Chem, 2017).
